This is an account of results in US20230339896A1, “HPK1 INHIBITORS AND USES THEREOF” (QILU REGOR THERAPEUTICS INC., priority 2020, published 2023).

SMILES strings stand for the structures. Like-named read-outs stand apart in the source and are kept apart here. Bounds are passed on as bounds.

Data set [1] can be described thus: Metabolic stability in liver microsomes, human (HLM). The following applies: 1 µM compound, NADPH; for half-life at 1 µM: human, liver microsomes, pH 7.4, 0.5 mg/mL protein, read-out: Metabolic Stability T½ (min), HLM. In kind it is in vitro ADME. As for the experimental part:
(§1) This assay is for determining the stability of test compound in liver microsomes. The study will be conducted in accordance with International Bioethical Standards “World Medical Association Declaration of
(§2) Human, Sprague Dawley Rat, CD-1 mouse, Beagle Dog and Cynomolgus Monkey Liver Microsomes samples purchased from BD Gentest or RILD.
(§3) 0.1 M Potassium phosphate buffer, pH 7.4: • Buffer A: 1.0 L of 0.1 M monobasic Potassium Phosphate buffer containing 1.0 mM EDTA • Buffer B: 1.0 L of 0.1 M Dibasic Potassium Phosphate buffer containing 1.0 mM EDTA • Buffer C (K-phosphate buffer): 0.1 M Potassium Phosphate buffer, 1.0 mM EDTA, pH 7.4 by titrating 700 mL of buffer B with buffer A while monitoring the pH meter
(§4) • Prepare 3× test compound or positive control solutions: 500 µM spiking solution: add 10 µL of 10 mM DMSO stock solution into 190 µL ACN. • 1.5 µM spiking solution in microsomes (0.75 mg/mL): add 1.5 µL of 500 µM spiking solution and 18.75 µL of 20 mg/mL liver microsomes into 479.75 µL of K-phosphate buffer.
(§5) Add 30 µL of 1.5 µM spiking solution containing 0.75 mg/ml microsomes solution to the wells designated for 45 min, 30 min, 15 min, 5 min and 0 min. Pre-incubate the plate at 37° C. for 5 minutes.
(§6) Add 15 µL of NADPH stock solution (6 mM) to all of the wells, and start timing. Immediately, add 135 µL of ACN containing IS to the wells designated as Time 0.
(§7) At 5 min, 15 min, 30 min and 45 min, add 135 µL of ACN containing IS to the wells, respectively.
(§8) After quenching, centrifuge the reaction mixtures at 3220 x g for 10 min.
(§9) Transfer 50 µL of the supernatant from each well into a 96-well sample plate containing 50 µL of ultra pure water (Millipore) for LC/MS analysis.
(§10) The % parent remaining at each incubation time point is calculated by comparing to the peak area ratio (compound peak area/internal standard peak area) at T0 (0 minute incubation). The ln peak area ratio is plotted against time and the gradient of the line is determined. The half-life and metabolism of compounds is calculated based upon a natural log linear regression of the relative peak areas vs time. The half-life and intrinsic clearance (Clint) in microsomes are calculated using the equations below. • In Vitro T ½ (min) = 0.693/Elimination rate of constant (k) • Clint (µL/min/mg of microsomal protein) = (0.693 / In Vitro T ½) (Incubation Volume/ mg of microsomes)
For orientation: Liver microsomes are a subcellular fraction often used to study metabolism.

In data set [2] the target is HPK1 (Homo sapiens (Human), UniProt Q92918). The data set is described as follows: HPK1 biochemical assay (ADP-GLO Kinase Assay). From the text:
This example used the ADP-GLO™ Kinase Assay to measure the effect of potential HPK1 inhibitor compounds on HPK1 kinase activity.
The ADP-GLO™ Kinase Assay (Promega Corp., Madison, WI) measures ADP formed from a kinase reaction. According to the manufacture, the ADP formed in a kinase assay is first converted into ATP, which is then used to generate light in a luciferase reaction. The luminescence generated correlates with kinase activity. An exemplary experimental setting is described below, though minor adjustments can be made in individual assays.
Serial 3-fold dilution of compoounds from 10 µM (top concentration) to 0.508 nM (lowest concentration). Positive control is 10 µM Reference + enzyme + substrate. Negative control is 1% DMSO + enzyme + substrate.
40 mM Tris pH7.5; 20 mM MgC12, 0.1 mg/ml BSA, 50 µM DTT Buffer stock
• 1) The compounds were diluted to 1 mM, by mixing 10 µL of 10 mM respective compound stocks with 90 µL of DMSO. • 2) The compounds were then diluted 3-fold for 10 doses (5 µL to 10 µL dilution) by BRAVO. The top compound conc. was 1 mM (100×), DMSO Conc. was 100%. • 3) Transfer 100 nL of each diluted compound sample to 384-well plate (Corning-4512) by ECHO. • 4) Centrifuge the plate at 1,500 rpm for 1 minute.
20 µM ATP, 0.2 µg/µL MBP in Kinase Buffer (final concentration: 10 µM ATP, 0.1 µg/µL MBP)
• 5. Preparation of 2× HPK1 working solution with assay buffer. HPK1 final concentration was 0.6 ng/µL. […] Add 5 µL/well of 2× HPK1 working solution, Centrifuge at 1,500 rpm for 1 minute. • 7. Add 5 µL/well of 2× ATP-Substrate, Centrifuge at 1,500 rpm for 1 minute. • 8. Incubate at 25° C. for 1 hour (or 6 hours for compounds with high potency). • 9. Add 5 µL/well ADP-GLO™ Reagent to stop the kinase reaction and deplete the unconsumed ATP. Centrifuge at 1,500 rpm for 1 minute. Incubate at 25° C. for 40 min. • 10. Add 10 µL of Kinase Detection Reagent to convert ADP to ATP. Centrifuge at 1,500 rpm for 1 minute. Incubate at 25° C. for 40 min. • 11. Record luminescence signal on an Envision plate reader (384-CTG).
The percent (%) inhibition at each concentration of compound is calculated based on and relative to the signal in the High and Low control wells contained within each assay plate. […] The concentrations and % inhibition values for tested compounds were plotted and the concentration of compound required for 50% inhibition (IC50) was determined with a Three-parameter logistic dose response equation. The endpoint value (IC50) for the reference peptide/compound was evaluated in each experiment as a quality control measure. If the endpoint value was within 3-fold of the expected value, then the experiment was deemed acceptable.
(In general: ADP-Glo turns the ADP formed in a reaction into a luminescent signal.)

Data set [3] is described as follows: Metabolic stability in liver microsomes, rat (RLM). In kind it is in vitro ADME, Sprague Dawley Rat. The following applies: 1 µM compound, NADPH; for half-life at 1 µM: Sprague Dawley, rat, liver microsomes, pH 7.4, 0.5 mg/mL protein, read-out: Metabolic Stability T½ (min), RLM. The protocol:
as §1, §2, §3, §4, §5, §6, §7, §8, §9, §10

Data set [4] in a line: Metabolic stability in liver microsomes, mouse (MLM). The following applies: 1 µM compound, NADPH; for half-life at 1 µM: CD-1, mouse, liver microsomes, pH 7.4, 0.5 mg/mL protein, read-out: Metabolic Stability T½ (min), MLM. The data set is classed as in vitro ADME, CD-1 mouse. As for the experimental part: as §1, §2, §3, §4, §5, §6, §7, §8, §9, §10
[5] abbreviates: ADP-GLO, 10 µM ATP, MBP substrate, read-out: HPK1 IC50.
Setting [6] is: Table 12-1, read-out: HPK1 inhibition activities.

Sequence of HPK1 (Q92918 whole entry): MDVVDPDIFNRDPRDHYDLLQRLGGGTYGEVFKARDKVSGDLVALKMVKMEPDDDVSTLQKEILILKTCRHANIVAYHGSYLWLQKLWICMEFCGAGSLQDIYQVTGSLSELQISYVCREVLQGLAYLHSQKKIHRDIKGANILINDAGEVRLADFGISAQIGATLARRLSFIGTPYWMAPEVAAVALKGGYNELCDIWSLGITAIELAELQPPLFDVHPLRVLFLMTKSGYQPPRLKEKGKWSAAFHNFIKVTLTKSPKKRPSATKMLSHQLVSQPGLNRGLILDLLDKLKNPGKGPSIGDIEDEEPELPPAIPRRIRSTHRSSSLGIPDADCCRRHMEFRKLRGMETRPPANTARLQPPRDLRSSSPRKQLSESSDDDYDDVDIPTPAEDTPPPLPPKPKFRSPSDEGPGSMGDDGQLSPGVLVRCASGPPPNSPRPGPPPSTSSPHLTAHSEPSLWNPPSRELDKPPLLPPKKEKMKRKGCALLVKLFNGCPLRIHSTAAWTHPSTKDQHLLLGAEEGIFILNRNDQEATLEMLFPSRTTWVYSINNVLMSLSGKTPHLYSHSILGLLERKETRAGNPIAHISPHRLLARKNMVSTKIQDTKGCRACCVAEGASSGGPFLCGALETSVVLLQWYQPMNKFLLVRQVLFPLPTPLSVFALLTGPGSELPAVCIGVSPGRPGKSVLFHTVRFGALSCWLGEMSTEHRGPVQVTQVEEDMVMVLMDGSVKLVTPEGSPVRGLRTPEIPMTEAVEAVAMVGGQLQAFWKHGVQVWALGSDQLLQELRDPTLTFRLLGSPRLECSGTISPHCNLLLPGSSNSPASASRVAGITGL

Regarding `COc1cc2c(cc1Nc1ncc(Cl)c(N3CC(C)(CC(=O)O)c4ccc(F)cc43)n1)CN(C)CC2` (stereo not drawn) [Compound 10, reference compound], the half-life at 1 µM in data set [1] stood at 51 min; in data set [3], 17 min; in data set [4], 46.1 min. Moreover, the IC50 in data set [2] (setting [5]) is 0.5 nM.

`COc1cc2c(cc1Nc1ncc(Cl)c(N3CC(C(=O)O)c4ccccc43)n1)CN(C)CC2` (stereo not drawn) [Compound 7, reference compound]: the figures for the half-life at 1 µM in data set [1], in data set [3] and in data set [4] were 237 min, 4260 min and greater than 5000 min, respectively. Moreover, in data set [2] (setting [5]), the IC50 is 1 nM.

For `CN1CCc2cc(F)c(Nc3ncc(Cl)c(N4CC(C)(CC(=O)O)c5ccccc54)n3)cc2C1` (stereo not drawn) [Example 4, 2-(1-(5-chloro-2-((6-fluoro-2-methyl-1,2,3,4-tetrahydroisoquinolin-7-yl)amino)pyrimidin-4-yl)-3-methylindolin-3-yl)acetic acid], the half-life at 1 µM in data set [1] amounted to 110 min; in data set [4] it was 79.4 min. For the same molecule, the IC50 in data set [2] (setting [5]) was 0.7 nM; in data set [2] (setting [6]), less than 1 nM.

Regarding `COc1cc2c(cc1Nc1ncc(Cl)c(N3CC(C)(CC(=O)O)c4ccccc43)n1)CN(C)CC2` (single isomer, unassigned) [Example 2, (R)-2-(1-(5-chloro-2-((6-methoxy-2-methyl-1,2,3,4-tetrahydroisoquinolin-7-yl)amino)pyrimidin-4-yl)-3-methylindolin-3-yl)acetic acid or (S)-2-(1-(5-chloro-2-((6-methoxy-2-methyl-1,2,3,4-tetrahydroisoquinolin-7-yl)amino)pyrimidin-4-yl)-3-methylindolin-3-yl)acetic acid], the half-life at 1 µM worked out at 90.8 min in data set [1], 38.4 min in data set [3] and 101 min in data set [4]. Further, the IC50 in data set [2] (setting [5]) is 0.2 nM; in data set [2] (setting [6]), less than 1 nM.

For the molecule `COc1cc2c(cc1Nc1ncc(Cl)c(N3CC(C)(CC(=O)O)c4ccccc43)n1)CN(C)CC2` (stereo not drawn) [Example 1, 2-(1-(5-chloro-2-((6-methoxy-2-methyl-1,2,3,4-tetrahydroisoquinolin-7-yl)amino)pyrimidin-4-yl)-3-methylindolin-3-yl)acetic acid], the half-life at 1 µM in data set [1] stood at 54.4 min; in data set [4] it was 84 min. The IC50 in data set [2] (setting [5]) is 0.5 nM; in data set [2] (setting [6]), less than 1 nM.

`COc1cc2c(cc1Nc1ncc(Cl)c(N3CC(CC(=O)O)c4ccccc43)n1)CN(C)CC2` (stereo not drawn) [Compound 8, reference compound]: the half-life at 1 µM came to 145 min in data set [1], 48.2 min in data set [3] and 145 min in data set [4]. In addition, the IC50 in data set [2] (setting [5]) came to 1.5 nM.

With `CN1CCc2cc(F)c(Nc3ncc(Cl)c(N4C[C@](C)(CC(=O)O)c5ccccc54)n3)cc2C1` (single isomer, unassigned) [Example 5, (R)-2-[1-[5-chloro-2-[(6-fluoro-2-methyl-3,4-dihydro-1H-isoquinolin-7-yl)amino]pyrimidin-4-yl]-3-methyl-indolin-3-yl]acetic acid or (S)-2-[1-[5-chloro-2-[(6-fluoro-2-methyl-3,4-dihydro-1H-isoquinolin-7-yl)amino]pyrimidin-4-yl]-3-methyl-indolin-3-yl]acetic acid], in data set [1] (0.5 mg/mL protein), the “Metabolic Stability T½ (min), HLM” value was “HLM: 68 min”. Further, the figures for the IC50 in data set [2] (setting [5]) and in data set [2] (setting [6]) were 0.2 nM and less than 1 nM, respectively. Moreover, the “Metabolic Stability T½ (min), RLM” value in data set [3] (0.5 mg/mL protein) is on record as “RLM: 23 min”. The “Metabolic Stability T½ (min), MLM” value in data set [4] (0.5 mg/mL protein) was “MLM: 86 min”.
